Experimental data: paper PMC12442009, “Self-Assembling Cyclic Peptide Nanotubes for the Delivery of Doxorubicin into Drug-Resistant Cancer Cells” (ACS Applied Materials & Interfaces, 2025)
Read-outs that look alike come from different tables or passages of the source. Square brackets hold non-standard residues; d marks the D form. Peptide text beside a SMILES is read from it. * marks the point of attachment. X1 = COc1cccc2c1C(=O)c1c(O)c3c(c(O)c1C2=O)C[C@@](O)(C(CO)=NNC(=O)CCCCCN1C(=O)CC(*)C1=O)C[C@@H]3O[C@H]1C[C@H](N)[C@H](O)[C@H](C)O1; Pra = C#CC[C@H](N)C(=O)O

How the values were obtained:
[1] = test system: NCI-H460 (lung cancer cell line); conditions: for E max (% inhibition): inhibition at highest concentration tested (100 μM)
Method: (§1) The cell growth inhibition of each compound was evaluated using the MTT (3-[4,5-dimethylthiazol-2-yl]-2,5-diphenyltetrazolium bromide) assay. MCF-7 and MRC-5 cells were grown on a Minimum Essential Medium Eagle, while NCI-H460 and NCI/ADR-RES cells were grown on RPMI 1640 culture medium. All culture mediums were supplemented with 10% FBS (fetal bovine serum) and 1% penicillin-streptomycin-glutamine mix. […] MCF-7 (100,000 cells/mL), NCI-H460 (150,000 cells/mL), NCI/ADR-RES (150,000 cells/mL), or MRC-5 (100,000 cells/mL) cells were seeded the day before in sterile 96-well plates (100 μL/well). Then, cells were incubated with each concentration of the compound (100 μL/well) for the specified time for each cell line. The compounds were previously dissolved in DMSO and diluted at the time of the experiment with complete medium to the concentration to be tested. The DMSO content of each well was maintained at less than 1%. All concentrations were carried out with triplicate points, and controls with DMSO at the same proportion in which the compounds were dissolved were included in all experiments. After the incubation time, the samples were removed, and 100 μL of complete medium with 0.5 mg/mL MTT was added to each well. Cells were incubated for 4 h, and the medium was removed. The resulting formazan crystals were dissolved in DMSO (100 μL/well). The absorbance of each well at 595 nm was acquired with a Tecan Infinite F200Pro plate reader. A blank subtraction was performed (cells treated with Triton X-100), and the data were normalized to the value of the untreated cells (100% viability). Data were analyzed with GraphPad Prism software.

NCI/ADR-RES cells [2] = test: Confocal microscopy internalization and colocalization; conditions: 50 μM, 2 h
[3] = Hydrazone stability / DOX release followed by mass spectrometry; assay type: physicochemical; conditions: 200 μM; for stability (DOX release) at pH 5.0: pH 5.0 (10 mM citrate buffer), followed over 72 h; for stability (DOX release) at physiological pH: pH 7.0 (H2O), 72 h
[4] = test system: MCF-7 (breast cancer cell line); test: MTT cell growth inhibition, MCF-7; assay type: cell-based; conditions: for E max (% inhibition): inhibition at highest concentration tested (100 μM), triplicate points
Method: as §1

[5] = test system: NCI/ADR-RES (doxorubicin-resistant ovarian cancer cell line); test: MTT cell growth inhibition, NCI/ADR-RES; assay type: cell-based; conditions: for E max (% inhibition): inhibition at highest concentration tested (100 μM)
Method: as §1

NCI/ADR-RES cells [6] = test: Cell uptake by RP-HPLC of cell lysates; conditions: 100 μM, 120 min, 37 °C minus 4 °C, ACN/H2O extraction, RP-HPLC 460 nm, normalized vs initial concentration incubated
Method: NCI/ADR-RES cells (10^6) were seeded in T-25 Flasks. After 24 h, the medium was removed, and a solution of DOX or CP1T NBD -DOX (100 μM) in culture medium (7 mL) was added. The cells were incubated for 120 min at 37 °C under a CO2 atmosphere (5%). Then, the medium was removed, and the cells were washed with cold PBS (3 × 3 mL). After washing, a mixture of ACN/H2O (1.5 mL, 80:20) was added to the flask and incubated overnight at 4 °C. Solvent samples were transferred to 1.5 mL Eppendorf and centrifuged at 12,000 g for 15 min at 4 °C, and the supernatant was evaporated to dryness. Analogous experiments were carried out by incubating the compounds at 4 °C for 120 min to determine the nonspecific binding to the cell membrane, since the uptake is decreased at this temperature. To evaluate the efficiency of solvent extraction, 10^6 cells were seeded in a T-25 Flask. […] The resulting lysates were analyzed by RP-HPLC by dissolving the Eppendorf samples in an aqueous solution of TFA (1%, 100 μL). All of the intracellular compound quantities were calculated from the detected area and divided by the efficiency of solvent extraction. Cell uptake was calculated by subtracting the intracellular compound quantity from the assay carried out at 37 °C from the quantity obtained at 4 °C and normalized to 100% vs the initial concentration incubated.

[7] = NCI-H460, 48 h incubation, MTT, calculated only if E max > 50%
[8] = MCF-7, 96 h incubation, MTT, 50% growth inhibition, calculated only if E max > 50%, read-out: IC50
[9] = NCI/ADR-RES, 72 h incubation, MTT
[10] = NCI/ADR-RES, 48 h incubation, MTT
[11] = NCI/ADR-RES, 72 h incubation, MTT, calculated only if E max > 50%, read-out: IC50
[12] = NCI/ADR-RES, 48 h incubation, MTT, calculated only if E max > 50%, read-out: IC50

C#CC[C@@H]1NC(=O)[C@@H](Cc2c[nH]c3ccccc23)NC(=O)[C@H](CO)NC(=O)[C@@H](CCCCN)NC(=O)[C@H](CO)NC(=O)[C@@H](CSC2CC(=O)N(CCCCCC(=O)NN=C(CO)[C@]3(O)Cc4c(O)c5c(c(O)c4[C@@H](O[C@H]4C[C@H](N)[C@H](O)[C@H](C)O4)C3)C(=O)c3c(OC)cccc3C5=O)C2=O)NC(=O)[C@H](CCC(N)=O)NC(=O)[C@@H](CCCCN)NC1=O (stereo partly drawn) [CP1-DOX] (cyclo(Q[dC](X1)S[dK]S[dW][Pra][dK]))
IC50 [1, 7]: 2.8 ± 0.1 µM | E max (% inhibition) ([1]; NCI-H460, 48 h incubation, MTT): 75 ± 1 % inhibition | cell internalization / localization by confocal microscopy (NCI/ADR-RES cells [2]): mainly trapped in small compartments of the cytoplasm | stability (DOX release) at pH 5.0 [3]: drug release was observed after 72 h under these conditions, although part of the cyclic peptide conjugate survived after this time | stability (DOX release) at physiological pH [3]: much more stable at physiological pH, with a small release of the drug after 72 h | IC50 [4, 8]: 3.5 ± 0.3 µM | E max (% inhibition) ([4]; MCF-7, 96 h incubation, MTT): 81 ± 1 % inhibition | E max (% inhibition) [5, 9]: 22 ± 4 % inhibition

COc1cccc2c1C(=O)c1c(O)c3c(c(O)c1C2=O)C[C@@](O)(C(CO)=NNC(=O)CCCCCN1C(=O)CC(SC[C@H]2NC(=O)[C@H](CCC(N)=O)NC(=O)[C@@H](CCCCN)NC(=O)[C@H](Cc4cn(CCCCC(=O)NCCNc5ccc([N+](=O)[O-])c6nonc56)nn4)NC(=O)[C@@H](Cc4c[nH]c5ccccc45)NC(=O)[C@H](CO)NC(=O)[C@@H](CCCCN)NC(=O)[C@H](CO)NC2=O)C1=O)C[C@@H]3O[C@H]1C[C@H](N)[C@H](O)[C@H](C)O1 (stereo partly drawn) [CP1T NBD -DOX]
E max (% inhibition) [5, 10]: 30 ± 3 % inhibition | IC50 [5, 11]: 3.7 ± 0.2 µM | cell uptake (NCI/ADR-RES cells [6]): 56.34%

CCCCCCCCCCn1cc(C[C@@H]2NC(=O)[C@@H](Cc3c[nH]c4ccccc34)NC(=O)[C@H](CO)NC(=O)[C@@H](CCCCN)NC(=O)[C@H](CO)NC(=O)[C@@H](CS)NC(=O)[C@H](CCC(N)=O)NC(=O)[C@@H](CCCCN)NC2=O)nn1 [CP1T10]
E max (% inhibition) ([1]; NCI-H460, 48 h incubation, MTT): 28 ± 1 % inhibition | IC50 [4, 8]: 78.8 ± 0.1 µM | E max (% inhibition) ([4]; MCF-7, 96 h incubation, MTT): 59 ± 1 % inhibition | IC50 [5, 12]: 68.9 ± 2.1 µM | E max (% inhibition) [5, 10]: 70 ± 2 % inhibition

N.N.[Cl][Pt][Cl] [Cisplatin, cisplatin, reference compound]
IC50 [1, 7]: 5.1 ± 0.6 µM | E max (% inhibition) ([1]; NCI-H460, 48 h incubation, MTT): 53 ± 1 % inhibition | IC50 [4, 8]: 7.8 ± 0.6 µM | E max (% inhibition) ([4]; MCF-7, 96 h incubation, MTT): 78 ± 1 % inhibition | IC50 [5, 12]: 11.5 ± 0.6 µM | E max (% inhibition) [5, 10]: 90 ± 1 % inhibition

C#CC[C@@H]1NC(=O)[C@@H](Cc2c[nH]c3ccccc23)NC(=O)[C@H](CO)NC(=O)[C@@H](CCCCN)NC(=O)[C@H](CO)NC(=O)[C@@H](CS)NC(=O)[C@H](CCC(N)=O)NC(=O)[C@@H](CCCCN)NC1=O [CP1] (cyclo([Pra][dK]Q[dC]S[dK]S[dW]))
IC50 ([1]; 48 h): 37.9 ± 0.4 µM | IC50 ([4]; 96 h): 17.7 ± 0.3 µM | IC50 ([5]; 48 h): 55.8 ± 0.7 µM | E max (% inhibition) [5, 10]: 90 ± 1 % inhibition

CCCCCCCCCCCCCCn1cc(C[C@@H]2NC(=O)[C@@H](Cc3c[nH]c4ccccc34)NC(=O)[C@H](CO)NC(=O)[C@@H](CCCCN)NC(=O)[C@H](CO)NC(=O)[C@@H](CSC3CC(=O)N(CCCCCC(=O)NN=C(CO)[C@]4(O)Cc5c(O)c6c(c(O)c5[C@@H](O[C@H]5C[C@H](N)[C@H](O)[C@H](C)O5)C4)C(=O)c4c(OC)cccc4C6=O)C3=O)NC(=O)[C@H](CCC(N)=O)NC(=O)[C@@H](CCCCN)NC2=O)nn1 (stereo partly drawn) [CP1T14-DOX]
E max (% inhibition) [5, 10]: 44 ± 4 % inhibition | IC50 [5, 11]: 5.7 ± 2.7 µM

CCCCCCCCCCCCCCn1cc(C[C@@H]2NC(=O)[C@@H](Cc3c[nH]c4ccccc34)NC(=O)[C@H](CO)NC(=O)[C@@H](CSC3CC(=O)N(CCCCCC(=O)NN=C(CO)[C@]4(O)Cc5c(O)c6c(c(O)c5[C@@H](O[C@H]5C[C@H](N)[C@H](O)[C@H](C)O5)C4)C(=O)c4c(OC)cccc4C6=O)C3=O)NC(=O)[C@H](CO)NC(=O)[C@@H](CCCNC(=N)N)NC(=O)[C@H](CCC(N)=O)NC(=O)[C@@H](CCCCN)NC2=O)nn1 (stereo partly drawn) [CP2T14-DOX]
E max (% inhibition) [5, 10]: 39 ± 9 % inhibition | IC50 [5, 11]: 8.2 ± 0.8 µM | E max (% inhibition) [5, 9]: 51 ± 4 % inhibition | E max (% inhibition) ([5]; NCI/ADR-RES, 72 h incubation, MTT, listed as CP2T 14 -DOX): good activity

CCCCCCCCCCn1cc(C[C@@H]2NC(=O)[C@@H](Cc3c[nH]c4ccccc34)NC(=O)[C@H](CO)NC(=O)[C@@H](CCCCN)NC(=O)[C@H](CO)NC(=O)[C@@H](CSC3CC(=O)N(CCCCCC(=O)NN=C(CO)[C@]4(O)Cc5c(O)c6c(c(O)c5[C@@H](O[C@H]5C[C@H](N)[C@H](O)[C@H](C)O5)C4)C(=O)c4c(OC)cccc4C6=O)C3=O)NC(=O)[C@H](CCC(N)=O)NC(=O)[C@@H](CCCCN)NC2=O)nn1 (stereo partly drawn) [CP1T10-DOX]
IC50 [1, 7]: 3.1 ± 0.1 µM | E max (% inhibition) ([1]; NCI-H460, 48 h incubation, MTT): 93 ± 1 % inhibition | cell internalization / localization by confocal microscopy (NCI/ADR-RES cells [2]): cells with a colored nucleus | stability (DOX release) at pH 5.0 [3]: the molecular ion corresponding to the drug is still very minor after this time | stability (DOX release) at physiological pH [3]: much more stable at physiological pH, with a small release of the drug after 72 h | IC50 [4, 8]: 3.4 ± 0.4 µM | E max (% inhibition) ([4]; MCF-7, 96 h incubation, MTT): 89 ± 1 % inhibition | IC50 [5, 12]: 38.4 ± 0.7 µM | IC50 [5, 11]: 10.8 ± 1.7 µM | E max (% inhibition) [5, 9]: 84 ± 3 % inhibition

C#CC[C@@H]1NC(=O)[C@@H](Cc2c[nH]c3ccccc23)NC(=O)[C@H](CO)NC(=O)[C@@H](CS)NC(=O)[C@H](CO)NC(=O)[C@@H](CCCNC(=N)N)NC(=O)[C@H](CCC(N)=O)NC(=O)[C@@H](CCCCN)NC1=O [CP2] (cyclo([Pra][dK]Q[dR]S[dC]S[dW]))
E max (% inhibition) ([1]; NCI-H460, 48 h incubation, MTT): 8 ± 1 % inhibition | E max (% inhibition) ([4]; MCF-7, 96 h incubation, MTT): 48 ± 1 % inhibition

C#CC[C@@H]1NC(=O)[C@@H](Cc2c[nH]c3ccccc23)NC(=O)[C@H](CO)NC(=O)[C@@H](CSC2CC(=O)N(CCCCCC(=O)NN=C(CO)[C@]3(O)Cc4c(O)c5c(c(O)c4[C@@H](O[C@H]4C[C@H](N)[C@H](O)[C@H](C)O4)C3)C(=O)c3c(OC)cccc3C5=O)C2=O)NC(=O)[C@H](CO)NC(=O)[C@@H](CCCNC(=N)N)NC(=O)[C@H](CCC(N)=O)NC(=O)[C@@H](CCCCN)NC1=O (stereo partly drawn) [CP2-DOX] (cyclo(Q[dR]S[dC](X1)S[dW][Pra][dK]))
IC50 [1, 7]: 2.9 ± 0.3 µM | E max (% inhibition) ([1]; NCI-H460, 48 h incubation, MTT): 92 ± 1 % inhibition | cell internalization / localization by confocal microscopy (NCI/ADR-RES cells [2]): minimum cell internalization | IC50 [4, 8]: 1.8 ± 0.2 µM | E max (% inhibition) ([4]; MCF-7, 96 h incubation, MTT): 80 ± 1 % inhibition | E max (% inhibition) [5, 9]: 13 ± 1 % inhibition

CCCCCCCCCCn1cc(C[C@@H]2NC(=O)[C@@H](Cc3c[nH]c4ccccc34)NC(=O)[C@H](CO)NC(=O)[C@@H](CSC3CC(=O)N(CCCCCC(=O)NN=C(CO)[C@]4(O)Cc5c(O)c6c(c(O)c5[C@@H](O[C@H]5C[C@H](N)[C@H](O)[C@H](C)O5)C4)C(=O)c4c(OC)cccc4C6=O)C3=O)NC(=O)[C@H](CO)NC(=O)[C@@H](CCCNC(=N)N)NC(=O)[C@H](CCC(N)=O)NC(=O)[C@@H](CCCCN)NC2=O)nn1 (stereo partly drawn) [CP2T10-DOX]
IC50 [1, 7]: 1.7 ± 0.1 µM | E max (% inhibition) ([1]; NCI-H460, 48 h incubation, MTT): 93 ± 1 % inhibition | cell internalization / localization by confocal microscopy (NCI/ADR-RES cells [2]): cells with a colored nucleus | IC50 [4, 8]: 2.6 ± 0.3 µM | E max (% inhibition) ([4]; MCF-7, 96 h incubation, MTT): 88 ± 1 % inhibition | IC50 [5, 12]: 33.4 ± 0.3 µM | IC50 [5, 11]: 21.8 ± 6.4 µM | E max (% inhibition) [5, 9]: 64 ± 7 % inhibition

CCCCCCCCCCn1cc(C[C@@H]2NC(=O)[C@@H](Cc3c[nH]c4ccccc34)NC(=O)[C@H](CO)NC(=O)[C@@H](CS)NC(=O)[C@H](CO)NC(=O)[C@@H](CCCNC(=N)N)NC(=O)[C@H](CCC(N)=O)NC(=O)[C@@H](CCCCN)NC2=O)nn1 [CP2T10]
E max (% inhibition) ([1]; NCI-H460, 48 h incubation, MTT): 80 ± 2 % inhibition | IC50 ([4]; 96 h): 50.2 ± 0.6 µM | E max (% inhibition) ([4]; MCF-7, 96 h incubation, MTT): 63 ± 1 % inhibition | IC50 ([5]; 48 h): 68.2 ± 4.6 µM | E max (% inhibition) [5, 10]: 75 ± 2 % inhibition
